Measurements published in patent US20180057553A1, “CONJUGATE AND USE THEREOF” (The University of Tokyo, priority 2015, published 2018).

Each compound was assayed against T1, Recombinant human intelectin-1 (Homo sapiens, UniProt Q8WWA0, V109D) (assay: Inhibition of the binding of intelectin to a 3-amino-1-propanediol sensor chip by various compounds (Biacore, Example 3)). Details: not given.
Protocol: The binding of purified intelectin to a sensor chip to which 3-amino-1-propanediol is fixed via an amino group was measured using Biacore (GE Healthcare Biosciences) under the presence of various kinds of compounds that were serially diluted. Recombinant human intelectin-1 was used as intelectin. The above-mentioned compound was a compound containing or not containing a diol group. Specifically, the compound was glycerol, 1,2-propanediol, 1,3-propanediol, 1-propanol, ethylene glycol, ethanol, 2-methoxyethanol, galactose, 2-acetamido-2-deoxy-4-O-beta-D-galactopyranosyl-D-glucopyranose (Galp-GlcNAc), 2-acetamido-2-deoxy-4-O-beta-D-galactofuranosyl-D-glucopyranose (Galf-GlcNAc), D-ribose, or L-ribose.
Intelectin was used at the final concentration of 0.5 microgram/mL. 10 mM HEPES (pH 7.0) containing 1 mM CaCl2, 150 mM NaCl, and 0.03% Tween 20 was used as the measuring buffer. The binding of intelectin measured using the sample that was not added with an above-mentioned compound was considered 100%, and the binding of intelectin in each sample was measured.

T1 sequence (Q8WWA0 19-298 V109D): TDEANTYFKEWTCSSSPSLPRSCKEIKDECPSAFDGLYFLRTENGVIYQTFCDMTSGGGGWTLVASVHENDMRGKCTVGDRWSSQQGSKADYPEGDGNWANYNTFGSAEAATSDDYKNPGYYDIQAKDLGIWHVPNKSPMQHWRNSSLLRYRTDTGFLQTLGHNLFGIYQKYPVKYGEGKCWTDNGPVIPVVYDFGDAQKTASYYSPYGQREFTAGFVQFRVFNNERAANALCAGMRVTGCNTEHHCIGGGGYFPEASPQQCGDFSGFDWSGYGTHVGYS

Row | Compound | IC50
1 | O=C(CO)[C@@H](O)[C@H](O)[C@@H](O)CO [L-sorbose] | 14 mM
2 | O=C[C@@H](O)[C@@H](O)[C@H](O)[C@H](O)CO [D-mannose] | 16 mM
3 | O=C[C@H](O)[C@@H](O)[C@@H](O)[C@H](O)CO [D-galactose] | 11 mM
4 | O=C(CO)[C@@H](O)[C@H](O)[C@H](O)CO [D-fructose] | 9 mM
5 | O=C[C@H](O)[C@@H](O)[C@H](O)[C@H](O)CO [D-glucose] | 18 mM
6 | OCCO [ethylene glycol] | 2.2 mM
7 | OCCCCO [1,4-butanediol] | > 100 mM

Same assay, conditions: Biacore; intelectin 0.5 microgram/mL; sensor chip with 3-amino-1-propanediol fixed; 10 mM HEPES pH 7.0, 1 mM CaCl2; read-out: IC50 for inhibition of the binding of intelectin and the diol group

Row | Compound | IC50
8 | NCCCO [3-amino-1-propanol] | > 100 mM
9 | NCC(O)CO (stereo not drawn) [3-amino-1,2-propanediol] | 1.8 mM
10 | C[C@@H](O)[C@H](O)[C@H](O)[C@@H](O)C=O [D-fucose] | 60 mM
11 | C[C@H](O)CO [(S)-1,2-propanediol] | 1.2 mM
12 | OCC(O)CO [glycerol] | 0.8 mM
13 | O=C[C@H](O)[C@H](O)[C@H](O)CO [D-ribose] | 0.5 mM
14 | O=C[C@H](O)[C@@H](O)[C@@H](O)CO [L-arabinose] | 22 mM
15 | CCCC(=O)OCC(O)CO (stereo not drawn) [monobutyrin] | 0.8 mM
16 | O=P(O)(O)OCC(O)CO (stereo not drawn) [alpha-glycerophosphate] | 1.2 mM
17 | O=C[C@@H](O)[C@H](O)[C@H](O)CO [D-arabinose] | 30 mM
18 | C[C@H](O)[C@@H](C)O [meso-2,3-butanediol] | 1.8 mM
19 | C[C@H](O)[C@H](C)O [(S,S)-2,3-butanediol] | 5 mM
20 | CC(=O)N[C@H]1C(O)O[C@H](CO)[C@@H](O[C@@H]2O[C@H](CO)[C@H](O)[C@H](O)[C@H]2O)[C@@H]1O (stereo partly drawn) [Galp-GlcNAc, 2-acetamido-2-deoxy-4-O-beta-D-galactopyranosyl-D-glucopyranose] | 13 mM
21 | NC(CO)(CO)CO [Tris] | 14 mM
22 | O=CC[C@@H](O)[C@@H](O)[C@H](O)CO [2-deoxygalactose] | 1.1 mM
23 | CC(O)CO (stereo not drawn) [1,2-propanediol] | 0.9 mM
24 | COCCO [2-methoxyethanol] | > 100 mM
25 | NCCO [Ethanolamine] | > 100 mM
26 | CC(=O)N[C@H]1C(O)O[C@H](CO)[C@@H](O[C@@H]2O[C@@H]([C@H](O)CO)[C@H](O)[C@H]2O)[C@@H]1O (stereo partly drawn) [Galf-GlcNAc, 2-acetamido-2-deoxy-4-O-beta-D-galactofuranosyl-D-glucopyranose] | 1.4 mM
27 | C[C@@H](O)CO [(R)-1,2-propanediol] | 1 mM

Row | Compound | IC50
28 | CCC(O)CO (stereo not drawn) [1,2-butanediol] | 0.8 mM
29 | CC(O)CCO (stereo not drawn) [1,3-butanediol] | 35 mM
30 | CC(=O)N[C@H]1C(O)O[C@H](CO)[C@@H](O)[C@@H]1O (stereo partly drawn) [N-acetylglucosamine] | 50 mM
31 | C[C@H](O)[C@H](O)[C@@H](O)[C@@H](O)C=O [L-rhamnose] | 30 mM
32 | CCO [ethanol] | > 100 mM
33 | COC1(C(=O)O)C[C@H](O)[C@@H](NC(C)=O)[C@H]([C@H](O)[C@H](O)CO)O1 (stereo partly drawn) [2-O-methyl-D-N-acetylneuraminic acid] | 6 mM
34 | O=P(O)(O)OC(CO)CO [Beta-glycerophosphate] | > 100 mM
35 | O=CC[C@H](O)[C@H](O)CO [2-deoxyribose] | 1.8 mM
36 | C[C@H](O)[C@@H](O)[C@@H](O)[C@H](O)C=O [L-fucose] | > 100 mM
37 | CCCO [1-propanol] | > 100 mM
38 | O=C1O[C@H]([C@@H](O)CO)C(O)=C1O [L-ascorbic acid] | 0.8 mM
39 | OCCCO [1,3-propanediol] | 30 mM
40 | OC[C@@H](O)[C@@H](O)[C@@H](O)CO [ribitol] | 1.2 mM
41 | O=C[C@H](O)[C@H](O)[C@@H](O)CO [L-lyxose] | 13 mM
42 | O=C[C@@H](O)[C@H](O)[C@@H](O)CO [L-xyrose] | 9 mM
43 | O=C[C@H](O)[C@@H](O)[C@H](O)CO [D-xylose] | 3.3 mM
44 | O=C[C@@H](O)[C@@H](O)[C@@H](O)CO [L-ribose] | 0.3 mM
45 | O=C[C@@H](O)[C@@H](O)[C@H](O)CO [D-lyxose] | 22 mM
46 | C[C@@H](O)[C@@H](C)O [(R,R)-2,3-butanediol] | 5 mM

Each compound was assayed against T1, Recombinant human intelectin-1 (assay: Binding of monoacylglycerol and intelectin (precipitation, SDS-PAGE, Example 5)). Details: lipid 100 micro M in medium containing intelectin, 15 minutes at 37 deg C.
Protocol: Monoacylgrycerols such as monopalmitin and monoolein are used as a component of micelles or liposomes. 1-monopalmitin, 2-monopalmitin, or 1-palmitoyl lysophosphatidic acid as a negative control at the final concentration of 100 micro M was added to 500 microliters of a medium containing intelectin, and the medium was stirred intensely and incubated for 15 minutes at 37 deg C. Recombinant human intelectin-1 was used as intelectin. By the above-mentioned procedures, it is expected that insoluble aggregates having a micelle-like structure with the diol group facing outwards and the acyl group facing inwards are formed and intelectin binds on the surface.
Subsequently, the samples were cooled for 15 minutes at 4 deg C. and centrifuged, and the precipitation was collected, washed once with buffer, and dissolved in sample buffer. Samples were then separated by SDS-PAGE and stained with Coomassie Brilliant Blue.

Row | Compound | binding of intelectin to the lipid (SDS-PAGE)
47 | CCCCCCCCCCCCCCCC(=O)OCC(O)CO (stereo not drawn) [1-monopalmitin] | bound
48 | CCCCCCCCCCCCCCCC(=O)OCC(O)COP(=O)(O)O (stereo not drawn) [1-palmitoyl lysophosphatidic acid] | only slightly
49 | CCCCCCCCCCCCCCCC(=O)OC(CO)CO [2-monopalmitin] | bound

These compounds were tested against IL-6 protein (Homo sapiens, UniProt P05231) (assay: ELISA on IL-6 protein with the conjugate of antibody Fab fragment and intelectin (Example 8)). Details: conjugate as primary antibody; HRP-labeled anti-intelectin-1 antibody 2D2.
Type: binding
Protocol: An ELISA analysis on IL-6 protein was performed using the conjugate generated in Example 6.
More specifically, IL-6 protein was adsorbed on an ELISA plate, and the conjugate generated in Example 6 was used for reaction as the primary antibody, and the horseradish peroxidase-labeled anti-intelectin-1 monoclonal antibody (2D2) was used for reaction as the secondary antibody. The detection was conducted using 3,3′,5,5′-tetramethylbenzidine.

Chain of IL-6 protein (P05231 30-212): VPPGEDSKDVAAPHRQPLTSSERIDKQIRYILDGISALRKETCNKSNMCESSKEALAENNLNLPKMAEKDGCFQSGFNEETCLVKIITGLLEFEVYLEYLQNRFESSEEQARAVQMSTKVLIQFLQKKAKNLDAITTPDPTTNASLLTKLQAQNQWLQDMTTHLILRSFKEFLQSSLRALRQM

Row | Compound | binding to IL-6 protein (ELISA)
50 | conjugate generated in Example 6: H chain Fab region of anti-IL-6 monoclonal antibody MH166 joined via one glycine to human intelectin-1 (S165A), co-expressed with MH166 L chain | bind to IL-6 protein

What follows are compounds tested against T2, Recombinant human TNF-alpha (Homo sapiens, UniProt P01375) (assay: Affinity between the conjugate of TNFR2 and intelectin and TNF-alpha (Biacore, Example 11)). Details: TNF-alpha as analyte, ligand fixed to sensor chip.
T2 construct: purchased Life Technologies
Type: binding
Protocol: The binding affinity between the conjugate generated in Example 7 and TNF-alpha was measured using Biacore (GE Healthcare Biosciences). The binding affinity between a commercially available anti-TNF formulation (Etanercept, soluble TNF receptor, product name “ Enbrel (registered trademark),” Takeda Pharmaceutical Company) and TNF-alpha was also measured as a control.
Recombinant human TNF-alpha (Life Technologies) was used as TNF-alpha.

T2 sequence (P01375 77-233 limits assumed): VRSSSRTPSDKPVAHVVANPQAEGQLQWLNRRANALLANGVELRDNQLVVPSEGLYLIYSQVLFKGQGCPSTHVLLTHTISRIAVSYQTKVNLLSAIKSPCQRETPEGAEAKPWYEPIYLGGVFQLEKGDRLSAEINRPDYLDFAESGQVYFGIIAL

Row | Compound | association rate constant Ka | dissociation rate constant Kd
51 | Etanercept | 1.09e+06 M⁻¹ s⁻¹ | 0.000342 s⁻¹

Same assay, conditions: TNF-alpha as analyte, ligand fixed to sensor chip; read-out: dissociation constant KD

Row | Compound | Kd
52 | Etanercept | 313 pM

These compounds were tested against T2, Recombinant human TNF-alpha (assay: Inhibitory effect on cytotoxicity by TNF-alpha in L929 cells (Example 12)). Details: actinomycin D 2.12 micro M, TNF-alpha 1 ng/mL, 24 hours.
Type: cell-based, mouse
Protocol: Actinomycin D at the final concentration of 2.12 micro M, recombinant human TNF-alpha (Life Technologies) at the final concentration of 1 ng/mL, and serially diluted conjugates generated in Example 7 were added to the medium of L929, a mouse-derived cell line, and the cells were cultured for 24 hours at 37 deg C. Subsequently, the number of live cells were measured using a commercially available kit (model “CellTiter96 (Trademark),” Promega), and the cell survival rate was determined. Another experiment, where a commercially available anti-TNF formulation (Etanercept, soluble TNF receptor, product name “ Enbrel (registered trademark),” Takeda Pharmaceutical Company) was used instead of the conjugate generated in Example 7, was also performed as a control.

Row | Compound | cytotoxicity inhibitory activity (cell survival rate)
53 | Etanercept | approximately equivalent cytotoxicity inhibitory activities
